Results reported in BindingDB's records for patent US12264155 (Repare Therapeutics, 2025).

Target: Serine/threonine-protein kinase ATR (Homo sapiens, UniProt Q13535)
Experiment: ATR/ATRIP Enzymatic Assay
Description: Detection of ATR kinase activity utilized the AlphaScreen system to measure the phosphorylation of the substrate protein p53.

Chain of Serine/threonine-protein kinase ATR (Q13535 whole entry): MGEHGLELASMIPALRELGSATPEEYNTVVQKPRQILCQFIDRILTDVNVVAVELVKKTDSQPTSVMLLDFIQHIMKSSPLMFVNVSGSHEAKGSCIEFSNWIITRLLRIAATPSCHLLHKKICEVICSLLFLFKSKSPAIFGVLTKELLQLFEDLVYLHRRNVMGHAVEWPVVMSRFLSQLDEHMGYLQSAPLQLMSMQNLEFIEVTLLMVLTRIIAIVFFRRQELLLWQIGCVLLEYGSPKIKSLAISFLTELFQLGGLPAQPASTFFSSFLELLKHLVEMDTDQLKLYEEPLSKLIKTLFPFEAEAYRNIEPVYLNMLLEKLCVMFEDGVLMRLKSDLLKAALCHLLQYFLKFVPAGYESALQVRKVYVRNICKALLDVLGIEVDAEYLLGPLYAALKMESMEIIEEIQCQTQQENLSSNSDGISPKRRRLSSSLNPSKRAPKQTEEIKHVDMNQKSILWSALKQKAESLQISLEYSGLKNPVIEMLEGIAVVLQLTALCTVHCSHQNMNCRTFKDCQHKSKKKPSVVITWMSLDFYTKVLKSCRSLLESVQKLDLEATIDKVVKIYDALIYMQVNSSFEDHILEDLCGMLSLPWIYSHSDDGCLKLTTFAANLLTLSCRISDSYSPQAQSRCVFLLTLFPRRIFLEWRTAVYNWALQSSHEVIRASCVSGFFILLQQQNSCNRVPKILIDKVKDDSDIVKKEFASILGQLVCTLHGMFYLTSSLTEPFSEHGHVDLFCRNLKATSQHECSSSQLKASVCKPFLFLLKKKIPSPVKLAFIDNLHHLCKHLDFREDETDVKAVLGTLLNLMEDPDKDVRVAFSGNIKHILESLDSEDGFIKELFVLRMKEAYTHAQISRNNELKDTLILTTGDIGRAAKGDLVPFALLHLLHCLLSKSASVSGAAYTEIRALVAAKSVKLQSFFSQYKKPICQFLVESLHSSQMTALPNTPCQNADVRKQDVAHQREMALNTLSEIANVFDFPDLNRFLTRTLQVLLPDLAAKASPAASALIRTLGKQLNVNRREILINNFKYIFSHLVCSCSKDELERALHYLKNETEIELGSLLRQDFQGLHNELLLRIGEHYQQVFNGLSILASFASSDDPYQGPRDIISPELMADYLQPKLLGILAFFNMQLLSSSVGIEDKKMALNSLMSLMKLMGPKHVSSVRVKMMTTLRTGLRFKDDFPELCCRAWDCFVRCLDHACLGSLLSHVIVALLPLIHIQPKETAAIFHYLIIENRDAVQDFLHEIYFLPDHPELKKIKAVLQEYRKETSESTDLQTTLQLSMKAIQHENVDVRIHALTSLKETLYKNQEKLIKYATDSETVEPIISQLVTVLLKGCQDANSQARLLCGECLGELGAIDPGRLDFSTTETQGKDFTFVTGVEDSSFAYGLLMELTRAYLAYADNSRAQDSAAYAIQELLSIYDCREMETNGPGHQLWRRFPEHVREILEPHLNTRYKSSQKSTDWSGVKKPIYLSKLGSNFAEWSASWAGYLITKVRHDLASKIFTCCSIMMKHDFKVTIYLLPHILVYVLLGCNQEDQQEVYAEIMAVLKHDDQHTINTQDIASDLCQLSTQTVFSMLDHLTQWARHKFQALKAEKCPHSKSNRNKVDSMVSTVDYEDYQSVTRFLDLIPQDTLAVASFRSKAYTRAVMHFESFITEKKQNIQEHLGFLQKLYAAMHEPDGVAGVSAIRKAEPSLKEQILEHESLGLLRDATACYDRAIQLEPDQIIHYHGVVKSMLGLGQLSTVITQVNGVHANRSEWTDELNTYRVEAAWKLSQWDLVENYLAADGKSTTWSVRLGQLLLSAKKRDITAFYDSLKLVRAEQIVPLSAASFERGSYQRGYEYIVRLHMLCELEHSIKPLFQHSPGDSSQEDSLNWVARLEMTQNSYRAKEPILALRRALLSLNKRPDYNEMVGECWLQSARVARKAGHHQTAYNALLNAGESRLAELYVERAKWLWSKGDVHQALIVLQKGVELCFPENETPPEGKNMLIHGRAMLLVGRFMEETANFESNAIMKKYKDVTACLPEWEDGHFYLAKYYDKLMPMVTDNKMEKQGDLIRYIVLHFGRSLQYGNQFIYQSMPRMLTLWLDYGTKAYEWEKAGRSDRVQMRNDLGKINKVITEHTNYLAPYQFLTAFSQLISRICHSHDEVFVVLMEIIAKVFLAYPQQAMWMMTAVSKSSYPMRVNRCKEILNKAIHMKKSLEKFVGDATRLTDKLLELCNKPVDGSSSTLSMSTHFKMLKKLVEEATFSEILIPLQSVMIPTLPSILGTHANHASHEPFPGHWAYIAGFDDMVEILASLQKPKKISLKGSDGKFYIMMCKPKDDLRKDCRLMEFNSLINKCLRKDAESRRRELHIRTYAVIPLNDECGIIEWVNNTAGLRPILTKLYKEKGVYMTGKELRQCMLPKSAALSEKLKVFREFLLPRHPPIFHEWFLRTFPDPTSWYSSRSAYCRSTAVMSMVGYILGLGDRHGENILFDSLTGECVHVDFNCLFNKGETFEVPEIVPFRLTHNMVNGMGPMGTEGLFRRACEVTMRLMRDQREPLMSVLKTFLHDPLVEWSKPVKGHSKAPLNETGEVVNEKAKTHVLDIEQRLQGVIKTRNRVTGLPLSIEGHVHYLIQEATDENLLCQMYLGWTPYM

Compound	IC50 [µM]
C[C@@H]1COCCN1c1cc(N2CCOC2=O)c2ccn(-c3cc[nH]n3)c2n1 [US12264155, Compound 26]	0.86
C[C@@H]1COCCN1c1cc(OCC(F)(F)F)c2cnn(-c3cc[nH]n3)c2n1 [US12264155, Compound 55]	0.013
C[C@@H]1COCCN1c1cc(C2(O)CCC3(CCC3)CC2)c2cnn(-c3cc[nH]n3)c2n1 [US12264155, Compound 58]	0.006
C[C@@H]1COCCN1c1cc(C(C)(C)C#N)c2c(Br)nn(-c3cc[nH]n3)c2n1 [US12264155, Compound 70]	< 0.005
